Patent US12331068B2, “Compositions and methods for inhibiting CD73” (Peloton Therapeutics, Inc., priority 2018, dated 2025)

Key:
[1] = molecular target: T1, Human CD73 (Homo sapiens, UniProt P21589); experiment: CD73 Enzyme Assay (EnzChek PNP/MESG kinetic readout of AMP hydrolysis); format: biochemical; details: 0.25 nM hCD73, 25 μM AMP; read-out: CD73 Enzyme Assay IC50
T1 construct: purchased R&D Systems; host or cells: CHO cells
T1 sequence (P21589 27-549): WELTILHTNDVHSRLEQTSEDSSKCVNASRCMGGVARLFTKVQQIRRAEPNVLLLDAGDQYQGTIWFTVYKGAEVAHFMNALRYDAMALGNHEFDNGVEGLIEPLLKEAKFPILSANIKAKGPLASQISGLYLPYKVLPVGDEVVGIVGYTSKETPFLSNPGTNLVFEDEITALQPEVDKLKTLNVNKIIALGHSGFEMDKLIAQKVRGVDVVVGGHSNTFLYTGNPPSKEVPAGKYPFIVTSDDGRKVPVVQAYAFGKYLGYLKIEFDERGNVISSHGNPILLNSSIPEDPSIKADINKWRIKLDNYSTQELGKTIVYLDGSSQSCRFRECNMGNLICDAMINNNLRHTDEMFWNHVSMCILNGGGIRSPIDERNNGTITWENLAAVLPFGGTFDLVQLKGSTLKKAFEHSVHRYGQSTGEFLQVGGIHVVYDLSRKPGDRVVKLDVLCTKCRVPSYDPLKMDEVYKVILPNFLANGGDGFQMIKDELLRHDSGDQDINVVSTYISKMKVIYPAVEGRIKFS
Protocol: A compound of the present disclosure (5 μL) was transferred to a 384-well assay plate. The compound was added in a 15 point, 3-fold serial dilution (300 μM to 0.0002 μM) in DMSO. […] The plate was immediately placed in a plate reader (Synergy 2 or Spark 10), and a reading was taken every minute for 10 to 20 minutes in a kinetic run at 360 nm. The linear portion of the curve was used to determine the observed rate (initial velocity). Low signal controls containing 100 μM adenosine 5′-(α,β-methylene) diphosphate and high signal controls containing no compound were measured for each plate.
IC50 values were calculated using Dotmatics template equation for 4-parameter fit. Results are expressed as % inhibition using the following equation: […]

[2] = molecular target: T2, CD73 on U138 human neuroglioma cells (Homo sapiens, UniProt P21589); experiment: CD73 Cell-Based Assay (inorganic phosphate from AMP, malachite green); details: AMP substrate, 2 hours at 37° C., read-out: CD73 Cell-Based assay IC50
T2 construct: U138 cells were obtained from ATCC and cultured in DMEM with 10% FBS; host or cells: U138 human neuroglioma cells
T2 sequence (P21589 27-549): T1 sequence (P21589 27-549)
Protocol: U138 human neuroglioma cells were used in these experiments. U138 cells were obtained from ATCC and cultured in DMEM with 10% FBS. 2500 cells were seeded into 96-well plate with 100 μL of media the day before the experiment. […] After washing, 100 μL of buffer was added to each well, then 100 μL of a mixture of AMP substrate (200 μM) and diluted compound was added to each well. The cells were incubated at 37° C. (with 5% CO2) for 2 hours. 50 μL of supernatant was transferred to a 96-well assay plate and the concentration of inorganic phosphate was determined using malachite green reagent (R&D System; Cat: DY996).

Row | SMILES | IC50 [1] [µM] | IC50 [2] [µM]
1 | N#Cc1c(Cl)nc2c(ccn2[C@@H]2O[C@H](CS(=O)(=O)CP(=O)(O)O)[C@@H](O)[C@H]2O)c1N[C@H]1C[C@H](F)C1 [Compound 76, (((((2S,3S,4R,5R)-5-(6-chloro-5-cyano-4-(((1r,3R)-3-fluorocyclobutyl)amino)-1H-pyrrolo[2,3-b]pyridin-1-yl)-3,4-dihydroxytetrahydrofuran-2-yl)methyl)sulfonyl)methyl)phosphonic acid] | < 0.01 | < 0.01
2 | N#Cc1c(Cl)nc2c(cnn2[C@@H]2O[C@H](COCP(=O)(O)O)[C@@H](O)[C@H]2O)c1N1CC(F)(F)C1 [Compound 78] | < 0.01 | < 0.01
3 | N#Cc1c(Cl)nc2c(cnn2[C@@H]2O[C@H](COCP(=O)(O)O)[C@@H](O)[C@H]2O)c1N1CC[C@H](F)C1 [Compound 79] | < 0.01 | < 0.01
4 | N#Cc1c(Cl)nc2c(cnn2[C@@H]2O[C@H](COCP(=O)(O)O)[C@@H](O)[C@H]2O)c1N1C[C@@H](F)[C@H](F)C1 [Compound 80] | < 0.01 | < 0.01
5 | N#Cc1c(Cl)nc2c(cnn2[C@@H]2O[C@H](COCP(=O)(O)O)[C@@H](O)[C@H]2O)c1NC1CC(F)(F)C1 [Compound 81] | < 0.01 | < 0.01
6 | N#Cc1c(Cl)nc2c(ncn2[C@@H]2O[C@H](COCP(=O)(O)O)[C@@H](O)[C@H]2O)c1N1CC(F)(F)C1 [Compound 82] | < 0.01 | < 0.01
7 | N#Cc1c(Cl)nc2c(ncn2[C@@H]2O[C@H](COCP(=O)(O)O)[C@@H](O)[C@H]2O)c1N1CC[C@@H](F)C1 [Compound 83] | < 0.01 | < 0.01
8 | N#Cc1c(Cl)nc2c(ncn2[C@@H]2O[C@H](COCP(=O)(O)O)[C@@H](O)[C@H]2O)c1N1CC[C@H](F)C1 [Compound 84] | < 0.01 | < 0.01
9 | N#Cc1c(Cl)nc2c(cnn2[C@@H]2O[C@H](COCP(=O)(O)O)[C@@H](O)[C@H]2O)c1NC1CC(F)C1 (stereo partly shown) [Compound 89] | < 0.01 | < 0.01
10 | N#Cc1c(Cl)nc2c(cnn2[C@@H]2O[C@H](COCP(=O)(O)O)[C@@H](O)[C@H]2O)c1N1CC[C@@H](F)C1 [Compound 90] | < 0.01 | < 0.01
11 | N#Cc1c(Cl)nc2c(cnn2[C@@H]2O[C@H](COCP(=O)(O)O)[C@@H](O)[C@H]2O)c1N1C[C@@H](F)[C@@H](F)C1 [Compound 91, ((((2R,3S,4R,5R)-5-(6-chloro-5-cyano-4-((3S,4R)-3,4-difluoropyrrolidin-1-yl)-1H-pyrazolo[3,4-b]pyridin-1-yl)-3,4-dihydroxytetrahydrofuran-2-yl)methoxy)methyl)phosphonic acid] | < 0.01 | < 0.01
12 | N#Cc1c(Cl)nc2c(ncn2[C@@H]2O[C@H](COCP(=O)(O)O)[C@@H](O)[C@H]2O)c1N1C[C@@H](F)[C@@H](F)C1 [Compound 92, ((((2R,3S,4R,5R)-5-(5-chloro-6-cyano-7-((3S,4R)-3,4-difluoropyrrolidin-1-yl)-3H-imidazo[4,5-b]pyridin-3-yl)-3,4-dihydroxytetrahydrofuran-2-yl)methoxy)methyl)phosphonic acid] | < 0.01 | < 0.01
13 | N#Cc1c(Cl)nc2c(ncn2[C@@H]2O[C@H](COCP(=O)(O)O)[C@@H](O)[C@H]2O)c1N1C[C@@H](F)[C@H](F)C1 [Compound 93] | < 0.01 | < 0.01
14 | N#Cc1c(Cl)nc2c(ncn2[C@@H]2O[C@H](COCP(=O)(O)O)[C@@H](O)[C@H]2O)c1N1CCC(F)(F)C1 [Compound 94, ((((2R,3S,4R,5R)-5-(5-chloro-6-cyano-7-(3,3-difluoropyrrolidin-1-yl)-3H-imidazo[4,5-b]pyridin-3-yl)-3,4-dihydroxytetrahydrofuran-2-yl)methoxy)methyl)phosphonic acid] | < 0.01 | < 0.01
15 | N#Cc1c(Cl)nc2c(cnn2[C@@H]2O[C@H](COP(=O)(O)CP(=O)(O)O)[C@@H](O)[C@@H]2F)c1N1CCC(F)(F)C1 [Compound 95, (((((2R,3R,4S,5R)-5-(6-chloro-5-cyano-4-(3,3-difluoropyrrolidin-1-yl)-1H-pyrazolo[3,4-b]pyridin-1-yl)-4-fluoro-3-hydroxytetrahydrofuran-2-yl)methoxy)(hydroxy)phosphoryl)methyl)phosphonic acid] | < 0.01 | < 0.01
16 | N#Cc1c(Cl)nc2c(ccn2[C@@H]2O[C@H](COP(=O)(O)CP(=O)(O)O)[C@@H](O)[C@@H]2F)c1N1CCC(F)(F)C1 [Compound 96] | < 0.01 | < 0.01

Row | SMILES | IC50 [1] [µM] | IC50 [2] [µM]
17 | N#Cc1c(Cl)nc2c(ncn2[C@@H]2O[C@H](COP(=O)(O)CP(=O)(O)O)[C@@H](O)[C@@H]2F)c1N1CCC(F)(F)C1 [Compound 97] | < 0.01 | < 0.01
18 | N#Cc1nc2c(ccn2[C@@H]2O[C@H](COCP(=O)(O)O)[C@@H](O)[C@H]2O)c(NC2CCCC2)c1Cl [Compound 101] | < 0.01 | < 0.01
19 | N#Cc1nc2c(ccn2[C@@H]2O[C@H](COCP(=O)(O)O)[C@@H](O)[C@H]2O)c(N2CCC(F)(F)C2)c1Cl [Compound 102] | < 0.01 | < 0.01
20 | N#Cc1nc2c(ccn2[C@@H]2O[C@H](COCP(=O)(O)O)[C@@H](O)[C@H]2O)c(N2C[C@@H](F)[C@@H](F)C2)c1Cl [Compound 103] | < 0.01 | < 0.01
21 | N#Cc1nc2c(ccn2[C@@H]2O[C@H](COCP(=O)(O)O)[C@@H](O)[C@H]2O)c(NC2CCCC2)c1C#N [Compound 104] | < 0.01 | < 0.01
22 | N#Cc1nc2c(ccn2[C@@H]2O[C@H](COCP(=O)(O)O)[C@@H](O)[C@H]2O)c(N2CCC(F)(F)C2)c1C#N [Compound 105] | < 0.01 | < 0.01
23 | N#Cc1nc2c(ccn2[C@@H]2O[C@H](COCP(=O)(O)O)[C@@H](O)[C@H]2O)c(N2C[C@@H](F)[C@@H](F)C2)c1C#N [Compound 106] | < 0.01 | < 0.01
24 | N#Cc1c(Cl)nc2c(ncn2[C@@H]2O[C@H](CS(=O)(=O)CP(=O)(O)O)[C@@H](O)[C@H]2O)c1NC1CC(F)(F)C1 [Compound 113, (((((2S,3S,4R,5R)-5-(5-chloro-6-cyano-7-((3,3-difluorocyclobutyl)amino)-3H-imidazo[4,5-b]pyridin-3-yl)-3,4-dihydroxytetrahydrofuran-2-yl)methyl)sulfonyl)methyl)phosphonic acid] | < 0.01 | < 0.01
25 | N#Cc1c(Cl)nc2c(ncn2[C@@H]2O[C@H](CS(=O)(=O)CP(=O)(O)O)[C@@H](O)[C@H]2O)c1NC1CC(F)C1 (stereo partly shown) [Compound 117] | < 0.01 | < 0.01
26 | N#Cc1c(Cl)nc2c(ncn2[C@@H]2O[C@H](CS(=O)(=O)CP(=O)(O)O)[C@@H](O)[C@H]2O)c1N1CCC(F)(F)C1 [Compound 118] | < 0.01 | < 0.01
27 | N#Cc1c(Cl)nc2c(cnn2[C@@H]2O[C@H](CS(=O)(=O)CP(=O)(O)O)[C@@H](O)[C@H]2O)c1N1CCC(F)(F)C1 [Compound 119, (((((2S,3S,4R,5R)-5-(6-chloro-5-cyano-4-(3,3-difluoropyrrolidin-1-yl)-1H-pyrazolo[3,4-b]pyridin-1-yl)-3,4-dihydroxytetrahydrofuran-2-yl)methyl)sulfonyl)methyl)phosphonic acid] | 0.01 to 0.1 | < 0.01
28 | N#Cc1c(Cl)nc2c(ncn2[C@@H]2O[C@H](CS(=O)(=O)CP(=O)(O)O)[C@@H](O)[C@H]2O)c1NC1CCC(F)(F)CC1 [Compound 126] | < 0.01 | < 0.01
29 | N#Cc1c(Cl)nc2c(ncn2[C@@H]2O[C@H](CS(=O)(=O)CP(=O)(O)O)[C@@H](O)[C@H]2O)c1NC1CC2CC2C1 (stereo partly shown) [Compound 127] | < 0.01 | < 0.01
30 | N#Cc1c(Cl)nc2c(cnn2[C@@H]2O[C@H](CS(=O)(=O)CP(=O)(O)O)[C@@H](O)[C@H]2O)c1NC1CC2CC2C1 (stereo partly shown) [Compound 128] | < 0.01 | < 0.01
31 | N#Cc1c(Cl)nc2c(cnn2[C@@H]2O[C@H](CS(=O)(=O)CP(=O)(O)O)[C@@H](O)[C@H]2O)c1NC1CC(F)(F)C1 [Compound 129] | < 0.01 | < 0.01
32 | N#Cc1c(Cl)nc2c(cnn2[C@@H]2O[C@H](CS(=O)(=O)CP(=O)(O)O)[C@@H](O)[C@H]2O)c1NC1CCC(F)(F)CC1 [Compound 130] | < 0.01 | < 0.01
